Key:
Assay in all cases: relative viability (nuclei count vs DMSO), 5 days (fraction); higher = more cells survive
Tipifarnib + Decitabine = compound: Cn1cncc1[C@@](N)(c1ccc(Cl)cc1)c1ccc2c(c1)c(-c1cccc(Cl)c1)cc(=O)n2C [Tipifarnib] + Nc1ncn([C@H]2C[C@H](O)[C@@H](CO)O2)c(=O)n1 [Decitabine] (partner 2 µM)
Summary of the method: (§1)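 Five library-drug doses in √10 steps were combined with a fixed anchor-drug dose, or a single drug was given alone, by pin tool to lung cancer cell lines in 1536-well plates the day after seeding. Nuclei were stained and counted after 5 days. Relative viability is the nuclei count in treated wells over that in vehicle wells, taken as the median of duplicate plates.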

Tipifarnib + Lapatinib = compound: Cn1cncc1[C@@](N)(c1ccc(Cl)cc1)c1ccc2c(c1)c(-c1cccc(Cl)c1)cc(=O)n2C [Tipifarnib] + CS(=O)(=O)CCNCc1ccc(-c2ccc3ncnc(Nc4ccc(OCc5cccc(F)c5)c(Cl)c4)c3c2)o1 [Lapatinib] (partner 2 µM)
Summary of the method: as §1

Tipifarnib + AZD7762 = compound: Cn1cncc1[C@@](N)(c1ccc(Cl)cc1)c1ccc2c(c1)c(-c1cccc(Cl)c1)cc(=O)n2C [Tipifarnib] + NC(=O)Nc1cc(-c2cccc(F)c2)sc1C(=O)N[C@H]1CCCNC1 [AZD7762] (partner 0.2 µM)
Summary of the method: as §1

Tipifarnib + Bortezomib = compound: Cn1cncc1[C@@](N)(c1ccc(Cl)cc1)c1ccc2c(c1)c(-c1cccc(Cl)c1)cc(=O)n2C [Tipifarnib] + CC(C)C[C@H](NC(=O)[C@H](Cc1ccccc1)NC(=O)c1cnccn1)B(O)O [Bortezomib] (partner 0.002 µM)
Summary of the method: as §1

Cell Line: NCI-H1993
- relative viability (Tipifarnib + Decitabine; first compound 0.01 µM): 0.666
- relative viability (Tipifarnib + Decitabine; first compound 0.03162 µM): 0.551
- relative viability (Tipifarnib + Decitabine; first compound 0.1 µM): 0.579
- relative viability (Tipifarnib + Decitabine; first compound 0.3162 µM): 0.528
- relative viability (Tipifarnib + Decitabine; first compound 1 µM): 0.545
- relative viability (Tipifarnib + Lapatinib; first compound 0.01 µM): 0.747
- relative viability (Tipifarnib + Lapatinib; first compound 0.03162 µM): 0.835
- relative viability (Tipifarnib + Lapatinib; first compound 0.1 µM): 0.699
- relative viability (Tipifarnib + Lapatinib; first compound 0.3162 µM): 0.716
- relative viability (Tipifarnib + Lapatinib; first compound 1 µM): 0.779
- relative viability (Tipifarnib + AZD7762; first compound 0.01 µM): 0.765
- relative viability (Tipifarnib + AZD7762; first compound 0.03162 µM): 0.591
- relative viability (Tipifarnib + AZD7762; first compound 0.1 µM): 0.571
- relative viability (Tipifarnib + AZD7762; first compound 0.3162 µM): 0.437
- relative viability (Tipifarnib + AZD7762; first compound 1 µM): 0.484
- relative viability (Tipifarnib + Bortezomib; first compound 0.01 µM): 1.12
- relative viability (Tipifarnib + Bortezomib; first compound 0.03162 µM): 0.852
- relative viability (Tipifarnib + Bortezomib; first compound 0.1 µM): 0.955
- relative viability (Tipifarnib + Bortezomib; first compound 0.3162 µM): 0.608
- relative viability (Tipifarnib + Bortezomib; first compound 1 µM): 0.806

Cell Line: NCI-H2085
- relative viability (Tipifarnib + Decitabine; first compound 0.01 µM): 0.558
- relative viability (Tipifarnib + Decitabine; first compound 0.03162 µM): 0.59
- relative viability (Tipifarnib + Decitabine; first compound 0.1 µM): 0.519
- relative viability (Tipifarnib + Decitabine; first compound 0.3162 µM): 0.493
- relative viability (Tipifarnib + Decitabine; first compound 1 µM): 0.536
- relative viability (Tipifarnib + Lapatinib; first compound 0.01 µM): 0.846
- relative viability (Tipifarnib + Lapatinib; first compound 0.03162 µM): 0.659
- relative viability (Tipifarnib + Lapatinib; first compound 0.1 µM): 0.633
- relative viability (Tipifarnib + Lapatinib; first compound 0.3162 µM): 0.523
- relative viability (Tipifarnib + Lapatinib; first compound 1 µM): 0.533
- relative viability (Tipifarnib + AZD7762; first compound 0.01 µM): 0.979
- relative viability (Tipifarnib + AZD7762; first compound 0.03162 µM): 0.73
- relative viability (Tipifarnib + AZD7762; first compound 0.1 µM): 0.67
- relative viability (Tipifarnib + AZD7762; first compound 0.3162 µM): 0.478
- relative viability (Tipifarnib + AZD7762; first compound 1 µM): 0.552
- relative viability (Tipifarnib + Bortezomib; first compound 0.01 µM): 1.15
- relative viability (Tipifarnib + Bortezomib; first compound 0.03162 µM): 0.729
- relative viability (Tipifarnib + Bortezomib; first compound 0.1 µM): 0.695
- relative viability (Tipifarnib + Bortezomib; first compound 0.3162 µM): 0.601
- relative viability (Tipifarnib + Bortezomib; first compound 1 µM): 0.72

Cell Line: NCI-H2087
- relative viability (Tipifarnib + Decitabine; first compound 0.01 µM): 0.348
- relative viability (Tipifarnib + Decitabine; first compound 0.03162 µM): 0.262
- relative viability (Tipifarnib + Decitabine; first compound 0.1 µM): 0.259
- relative viability (Tipifarnib + Decitabine; first compound 0.3162 µM): 0.205
- relative viability (Tipifarnib + Decitabine; first compound 1 µM): 0.206
- relative viability (Tipifarnib + Lapatinib; first compound 0.01 µM): 0.934
- relative viability (Tipifarnib + Lapatinib; first compound 0.03162 µM): 0.493
- relative viability (Tipifarnib + Lapatinib; first compound 0.1 µM): 0.475
- relative viability (Tipifarnib + Lapatinib; first compound 0.3162 µM): 0.404
- relative viability (Tipifarnib + Lapatinib; first compound 1 µM): 0.344
- relative viability (Tipifarnib + AZD7762; first compound 0.01 µM): 0.99
- relative viability (Tipifarnib + AZD7762; first compound 0.03162 µM): 0.48
- relative viability (Tipifarnib + AZD7762; first compound 0.1 µM): 0.249
- relative viability (Tipifarnib + AZD7762; first compound 0.3162 µM): 0.241
- relative viability (Tipifarnib + AZD7762; first compound 1 µM): 0.395
- relative viability (Tipifarnib + Bortezomib; first compound 0.01 µM): 0.705
- relative viability (Tipifarnib + Bortezomib; first compound 0.03162 µM): 0.418
- relative viability (Tipifarnib + Bortezomib; first compound 0.1 µM): 0.375
- relative viability (Tipifarnib + Bortezomib; first compound 0.3162 µM): 0.276
- relative viability (Tipifarnib + Bortezomib; first compound 1 µM): 0.39

Cell Line: NCI-H2126
- relative viability (Tipifarnib + Decitabine; first compound 0.01 µM): 0.576
- relative viability (Tipifarnib + Decitabine; first compound 0.03162 µM): 0.582
- relative viability (Tipifarnib + Decitabine; first compound 0.1 µM): 0.578
- relative viability (Tipifarnib + Decitabine; first compound 0.3162 µM): 0.519
- relative viability (Tipifarnib + Decitabine; first compound 1 µM): 0.53
- relative viability (Tipifarnib + Lapatinib; first compound 0.01 µM): 0.782
- relative viability (Tipifarnib + Lapatinib; first compound 0.03162 µM): 0.724
- relative viability (Tipifarnib + Lapatinib; first compound 0.1 µM): 0.769
- relative viability (Tipifarnib + Lapatinib; first compound 0.3162 µM): 0.761
- relative viability (Tipifarnib + Lapatinib; first compound 1 µM): 0.469
- relative viability (Tipifarnib + AZD7762; first compound 0.01 µM): 1.01
- relative viability (Tipifarnib + AZD7762; first compound 0.03162 µM): 1
- relative viability (Tipifarnib + AZD7762; first compound 0.1 µM): 0.991
- relative viability (Tipifarnib + AZD7762; first compound 0.3162 µM): 0.962
- relative viability (Tipifarnib + AZD7762; first compound 1 µM): 0.716
- relative viability (Tipifarnib + Bortezomib; first compound 0.01 µM): 1.05
- relative viability (Tipifarnib + Bortezomib; first compound 0.03162 µM): 1.07
- relative viability (Tipifarnib + Bortezomib; first compound 0.1 µM): 1.13
- relative viability (Tipifarnib + Bortezomib; first compound 0.3162 µM): 1.05
- relative viability (Tipifarnib + Bortezomib; first compound 1 µM): 0.669

Cell Line: NCI-H2347
- relative viability (Tipifarnib + Decitabine; first compound 0.01 µM): 0.593
- relative viability (Tipifarnib + Decitabine; first compound 0.03162 µM): 0.553
- relative viability (Tipifarnib + Decitabine; first compound 0.1 µM): 0.581
- relative viability (Tipifarnib + Decitabine; first compound 0.3162 µM): 0.527
- relative viability (Tipifarnib + Decitabine; first compound 1 µM): 0.521
- relative viability (Tipifarnib + Lapatinib; first compound 0.01 µM): 0.827
- relative viability (Tipifarnib + Lapatinib; first compound 0.03162 µM): 0.727
- relative viability (Tipifarnib + Lapatinib; first compound 0.1 µM): 0.642
- relative viability (Tipifarnib + Lapatinib; first compound 0.3162 µM): 0.582
- relative viability (Tipifarnib + Lapatinib; first compound 1 µM): 0.642
- relative viability (Tipifarnib + AZD7762; first compound 0.01 µM): 0.834
- relative viability (Tipifarnib + AZD7762; first compound 0.03162 µM): 0.721
- relative viability (Tipifarnib + AZD7762; first compound 0.1 µM): 0.665
- relative viability (Tipifarnib + AZD7762; first compound 0.3162 µM): 0.505
- relative viability (Tipifarnib + AZD7762; first compound 1 µM): 0.61
- relative viability (Tipifarnib + Bortezomib; first compound 0.01 µM): 0.897
- relative viability (Tipifarnib + Bortezomib; first compound 0.03162 µM): 0.469
- relative viability (Tipifarnib + Bortezomib; first compound 0.1 µM): 0.751
- relative viability (Tipifarnib + Bortezomib; first compound 0.3162 µM): 0.698
- relative viability (Tipifarnib + Bortezomib; first compound 1 µM): 0.738

From the supplement of paper PMC10307832
